According to ChEMBL document CHEMBL5346876, “Hybrids of polyphenolic/quinone acids, the potential preventive and therapeutic drugs for PD: Disaggregate α-Syn fibrils, inhibit inclusions, and repair damaged neurons in mice” (Eur J Med Chem, 2023):
Calls of active or inactive are those of the source. The calls are words filed in the database; no cut-off is given here.

Key:
[1] = Cytotoxicity against human SH-SY5Y cells assessed as cell viability at 100 uM incubated for 48 hrs by CCK-8 assay relative to control; type: toxicity, cell-based; conditions: read-out: Activity
[2] = Cytotoxicity against human H4 cells assessed as cell viability at 100 uM incubated for 48 hrs by CCK-8 assay relative to control; type: toxicity, cell-based; conditions: read-out: Activity
H4 [3] = test: Antioxidant activity in H2O2-induced human H4 cells assessed as ROS scavenging at 10 uM preincubated with H2O2 for 3 hrs followed by DCFH-DA addition for 30 mins and further incubated with compound and measured after 30 mins by DCFH-DA dye based fluorescence microplate reader analysis relative to control; type: functional; conditions: 0.5 h
H4 [4] = test: Antioxidant activity in H2O2-induced human H4 cells assessed as reduction in ROS generation ratio preincubated with H2O2 for 3 hrs followed by DCFH-DA addition for 30 mins and further incubated with compound and measured after 30 mins by DCFH-DA dye based fluorescence microplate reader analysis; type: functional, cell-based; conditions: dose 3-10 µM
Mus musculus [5] = test: (§1) Neuroprotective activity against 6-OHDA-induced lesioned C57 mouse model of Parkinson's disease assessed as increase in survival of ipsilateral dopaminergic neuron in caudate putamen nucleus of brain by measuring tyrosine hydroxylase fluorescence intensity administered via right striatum and measured after 21 days by immunofluorescence staining analysis (reference value: 11.5 %); type: functional; conditions: time 21 day
Mus musculus [6] = test: Neuroprotective activity against 6-OHDA-induced lesioned C57 mouse model of Parkinson's disease assessed as reduction in weight loss administered via right striatum and measured after 14 days; type: functional, organism-based; conditions: time 14.0 day
Mus musculus [7] = test: Neuroprotective activity against 6-OHDA-induced lesioned C57 mouse model of Parkinson's disease assessed as improvement of weakened grip administered via right striatum and measured after 14 days by rotarod test; type: functional, organism-based; conditions: time 14.0 day
Mus musculus [8] = test: Neuroprotective activity against 6-OHDA-induced lesioned C57 mouse model of Parkinson's disease assessed as reduction in ipsilateral dopaminergic neuron damage in caudate putamen nucleus of brain administered via right striatum and measured after 21 days by immunofluorescence staining analysis; type: functional, organism-based; conditions: time 21.0 day
Mus musculus [9] = test: Neuroprotective activity against 6-OHDA-induced lesioned C57 mouse model of Parkinson's disease assessed as improvement of poor balance administered via right striatum and measured after 14 days by rotarod test; type: functional, organism-based; conditions: time 14.0 day
[10] = Toxicity in C57 mouse assessed as effect on survival of ipsilateral dopaminergic neuron in caudate putamen nucleus of brain administered via right striatum and measured after 21 days by immunofluorescence staining analysis; conditions: in vivo, other, 504 h, time 21 day
Mus musculus [11] = test: Neuroprotective activity against 6-OHDA-induced lesioned C57 mouse model of Parkinson's disease assessed as protection of dopaminergic neuronal damage administered via right striatum and measured after 21 days; type: functional, organism-based; conditions: time 21.0 day
Mus musculus [12] = test: Neuroprotective activity against 6-OHDA-induced lesioned C57 mouse model of Parkinson's disease assessed as reduction in apomorphine-induced contralateral rotation by measuring decrease in turn number preadministered with compound for 14 days via right striatum and measured 30 mins after apomorphine addition by videotaping analysis relative to control; type: functional; set-up: scale not given: the % may be the effect or the level left; conditions: time 336.5 hrs
Mus musculus [13] = test: Neuroprotective activity against 6-OHDA-induced lesioned C57 mouse model of Parkinson's disease assessed as reduction of dopaminergic neuronal damage at 2.7 ug administered via right striatum and measured after 21 days; type: functional, organism-based; conditions: dose 2.7 µg, time 21.0 day
Mus musculus [14] = test: Neuroprotective activity against 6-OHDA-induced lesioned C57 mouse model of Parkinson's disease assessed as improvement of stiff limbs administered via right striatum and measured after 14 days by rotarod test; type: functional, organism-based; conditions: time 14.0 day
[15] = Toxicity in C57 mouse assessed as effect on time spend in rod administered via right striatum and measured after 14 days by rotarod test; conditions: in vivo, other, 336 h, time 14 day
[16] = Toxicity in C57 mouse assessed as effect on survival of ipsilateral dopaminergic neuron in substantia nigra pars reticulate of brain administered via right striatum and measured after 21 days by immunofluorescence staining analysis; conditions: in vivo, other, 504 h, time 21 day
Mus musculus [17] = test: as §1, with “substantia nigra pars reticulate” for “caudate putamen nucleus”, “9.7” for “11.5”; type: functional; conditions: time 21 day
H4 [18] = test: Antioxidant activity in H2O2-induced human H4 cells assessed as reduction in exogenous ROS level by measuring dark green fluorescence preincubated with H2O2 for 3 hrs followed by compound addition and measured after 30 mins by flow cytometric analysis; type: functional, cell-based
H4 [19] = test: Antioxidant activity in H2O2-induced human H4 cells assessed as reduction in endogenous ROS level by measuring green fluorescence preincubated with H2O2 for 3 hrs followed by compound addition and measured after 30 mins by flow cytometric analysis; type: functional, cell-based

| SMILES | viability at 48 h, 100 µM [1] [%] | viability at 48 h, 100 µM [2] [%] | Activity (H4 [3]) [%] | Activity (H4 [4]) | further results |
| --- | --- | --- | --- | --- | --- |
| O=C(/C=C/c1cc(O)ccc1O)Nc1ccc(NC(=O)c2ccc(O)cc2)cc1 | > 85 | > 85 | 70 | Dose-Dependent Effect | – |
| O=C(/C=C/c1cc(O)ccc1O)Nc1ccc(NC(=O)/C=C/c2cc(O)ccc2O)cc1 | > 85 | > 85 | 70 | Dose-Dependent Effect | Flu intensity (Mus musculus [5]): 66.2%; Activity (Mus musculus [6]): Active; Activity (Mus musculus [7]): Active; Activity (Mus musculus [8]): Active; Activity (Mus musculus [9]): Active; Activity [10]: Non-Toxic; Activity (Mus musculus [11]): Dose-Dependent Effect; Activity (Mus musculus [12]): 87%; Activity (Mus musculus [13]): Active; Activity (Mus musculus [14]): Active; Time [15]: 264 s; Activity [16]: Non-Toxic; Flu intensity (Mus musculus [17]): 65.1% |
| O=C1C=CC(=O)C(/C=C/C(=O)Nc2ccc(NC(=O)c3ccc(F)cc3F)cc2)=C1 | > 85 | > 85 | – | Dose-Dependent Effect | Activity (H4 [18]): Active; Activity (H4 [19]): Active |
| O=C(/C=C/c1ccc(O)c(O)c1)Nc1ccc(NC(=O)c2ccc(F)cc2)cc1 | – | – | 70 | Dose-Dependent Effect | – |
| O=C(/C=C/c1cc(O)ccc1O)Nc1ccc(NC(=O)c2ccc(F)cc2F)cc1 | > 85 | > 85 | – | Dose-Dependent Effect | Activity (H4 [18]): Active; Activity (H4 [19]): Active |
| O=C1C=CC(=O)C(/C=C/C(=O)Nc2ccc(NC(=O)c3ccc(F)c(F)c3)cc2)=C1 | > 85 | > 85 | – | Dose-Dependent Effect | – |
| O=C1C=CC(=O)C(/C=C/C(=O)Nc2ccc(NC(=O)c3ccc(F)cc3)cc2)=C1 | > 85 | > 85 | 70 | Dose-Dependent Effect | – |
